# Measured values as given in patent US8039514B2, “Sulfonamide compounds and use thereof” (Asahi Kasei Pharma Corporation, priority 2008, dated 2011).
# Target: T1, human calcium-sensing receptor (CaSR) (Homo sapiens, UniProt P41180)
# T1 construct: expressed in transfected cells
# T1 sequence (P41180 20-1078): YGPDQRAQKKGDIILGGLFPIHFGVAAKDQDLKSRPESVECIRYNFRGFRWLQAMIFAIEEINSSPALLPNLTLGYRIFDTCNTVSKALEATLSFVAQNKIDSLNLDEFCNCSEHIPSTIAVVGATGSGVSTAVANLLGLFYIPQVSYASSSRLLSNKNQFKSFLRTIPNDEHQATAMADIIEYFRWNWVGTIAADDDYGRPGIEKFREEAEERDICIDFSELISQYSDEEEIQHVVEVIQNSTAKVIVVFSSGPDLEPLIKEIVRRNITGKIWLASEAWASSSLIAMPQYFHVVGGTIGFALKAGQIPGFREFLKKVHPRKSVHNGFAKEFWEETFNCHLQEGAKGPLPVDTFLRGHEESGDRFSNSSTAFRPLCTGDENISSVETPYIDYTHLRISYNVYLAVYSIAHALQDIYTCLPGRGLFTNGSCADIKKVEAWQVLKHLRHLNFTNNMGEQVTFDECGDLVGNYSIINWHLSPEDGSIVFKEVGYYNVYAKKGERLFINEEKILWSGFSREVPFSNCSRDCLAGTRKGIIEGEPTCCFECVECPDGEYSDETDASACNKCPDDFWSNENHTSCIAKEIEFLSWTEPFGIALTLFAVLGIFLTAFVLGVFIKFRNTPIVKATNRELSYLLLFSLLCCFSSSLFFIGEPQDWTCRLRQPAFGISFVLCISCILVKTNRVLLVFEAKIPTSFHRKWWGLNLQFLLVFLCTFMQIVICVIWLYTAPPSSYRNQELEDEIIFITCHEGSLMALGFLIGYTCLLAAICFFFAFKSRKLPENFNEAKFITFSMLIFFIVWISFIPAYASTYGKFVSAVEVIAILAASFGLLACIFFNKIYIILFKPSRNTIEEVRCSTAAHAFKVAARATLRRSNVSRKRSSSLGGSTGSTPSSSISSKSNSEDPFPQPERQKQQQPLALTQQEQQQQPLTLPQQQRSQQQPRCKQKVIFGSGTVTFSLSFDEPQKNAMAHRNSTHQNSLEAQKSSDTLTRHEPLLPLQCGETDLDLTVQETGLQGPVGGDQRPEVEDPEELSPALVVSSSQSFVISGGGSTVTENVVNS
# Assay: intracellular Ca assay, CaSR antagonist activity in HEK293/hCaSR cells
# Assay type: cell-based
# Details: Fura2-AM, inhibition of response to calcium chloride ligand solution, read-out: IC50 values according to the intracellular Ca assay (CaSR antagonist activity)
# Method in brief: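 HEK293/hCaSR cells were loaded with Fura2-AM and pre-incubated with compound for 160 s at 37° C in HEPES buffer (pH 7.4, 0.8 mM CaCl2), then challenged with calcium ligand solution. Read-out was the peak 340/380 nm fluorescence ratio; inhibition is relative to no-compound (0%) and no-calcium-ligand (100%) controls.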
row,SMILES,IC50
1,"CN(C[C@H](O)CNC(C)(C)CCCc1ccccc1)S(=O)(=O)c1cc(-c2ccc(CCC(=O)O)cc2)cc(C(F)(F)F)c1 [Exp. 9-56, (R)-3-(3′-(N-(2-hydroxy-3-(2-methyl-5-phenylpentan-2-ylamino)propyl)-N-methylsulfamoyl)-5′-(trifluoromethyl)biphenyl-4-yl)propionic acid]",≤ 0.3 µM
2,"CN(C[C@H](O)CNC(C)(C)Cc1ccc2ccccc2c1)S(=O)(=O)c1cccc(-c2ccc(C(=O)O)cc2F)c1 [Exp. 3-12, (R)-2-fluoro-3′-(N-(2-hydroxy-3-(2-methyl-1-(naphthalen-2-yl)propan-2-ylamino)propyl)-N-methylsulfamoyl)biphenyl-4-carboxylic acid]",0.3 to 1 µM
3,"CN(C[C@H](O)CNC(C)(C)Cc1ccc2ccccc2c1)S(=O)(=O)c1cccc(-c2ccc(NC(=O)CCC(=O)O)cc2)c1 [Exp. 3-21, (R)-4-(3′-(N-(2-hydroxy-3-(2-methyl-1-(naphthalen-2-yl)propan-2-ylamino)propyl)-N-methylsulfamoyl)biphenyl-4-ylamino)-4-oxobutanoic acid]",0.3 to 1 µM
4,"CN(C[C@H](O)CNC(C)(C)CC1Cc2ccccc2C1)S(=O)(=O)c1c(Cl)cc(-c2ccc(CC(=O)O)cc2)cc1Cl [Exp. 3-140, (R)-2-(3′,5′-dichloro-4′-(N-(3-(1-(2,3-dihydro-1H-inden-2-yl)-2-methylpropan-2-ylamino)-2-hydroxypropyl)-N-methylsulfamoyl)biphenyl-4-yl)acetic acid]",≤ 0.3 µM
5,"CN(C[C@H](O)CNC(C)(C)Cc1ccc2ccccc2c1)S(=O)(=O)c1cccc(-c2ccc(C(=O)O)cc2)c1 [Exp. 3-6, (R)-3′-(N-(2-hydroxy-3-(2-methyl-1-(naphthalen-2-yl)propan-2-ylamino)propyl)-N-methylsulfamoyl)biphenyl-4-carboxylic acid]",0.3 to 1 µM
6,"CN(C[C@H](O)CNC(C)(C)Cc1ccc2ccccc2c1)S(=O)(=O)c1cccc(-c2ccc(CCC(=O)O)cc2)c1 [Exp. 3-15, (R)-3-(3′-(N-(2-hydroxy-3-(2-methyl-1-(naphthalen-2-yl)propan-2-ylamino)propyl)-N-methylsulfamoyl)biphenyl-4-yl)propionic acid]",0.3 to 1 µM
7,"CCc1cc(-c2ccc(CCC(=O)O)cc2)ccc1S(=O)(=O)N(C)C[C@H](O)CNC(C)(C)CCCc1cccs1 [Exp. 9-92, (R)-3-(3′-ethyl-4′-(N-(2-hydroxy-3-(2-methyl-5-(thiophen-2-yl)pentan-2-ylamino)propyl)-N-methylsulfamoyl)biphenyl-4-yl)propionic acid]",≤ 0.3 µM
8,"CN(C[C@H](O)CNC(C)(C)CCCc1ccccc1)S(=O)(=O)c1c(Cl)cc(-c2cccc(CCC(=O)O)c2)cc1Cl [Exp. 6-6, (R)-3-(3′,5′-dichloro-4′-(N-(2-hydroxy-3-(2-methyl-5-phenylpentan-2-ylamino)propyl)-N-methylsulfamoyl)biphenyl-3-yl)propionic acid]",≤ 0.3 µM
9,"CN(C[C@H](O)CNC(C)(C)Cc1ccc2ccccc2c1)S(=O)(=O)c1ccc(-c2cc(C(=O)O)cc([N+](=O)[O-])c2)cc1 [Exp. 3-40, (R)-4′-(N-(2-hydroxy-3-(2-methyl-1-(naphthalen-2-yl)propan-2-ylamino)propyl)-N-methylsulfamoyl)-5-nitrobiphenyl-3-carboxylic acid]",0.3 to 1 µM
10,"CN(C[C@H](O)CNC(C)(C)CC1Cc2ccccc2C1)S(=O)(=O)c1cccc(-c2ccc(C=CC(=O)O)cc2)c1 [Exp. 3-56, (R)-3-(3′-(N-(3-(1-(2,3-dihydro-1H-inden-2-yl)-2-methylpropan-2-ylamino)-2-hydroxypropyl)-N-methylsulfamoyl)biphenyl-4-yl)acrylic acid]",0.3 to 1 µM
11,"CN(C[C@H](O)CNC(C)(C)CC1Cc2ccccc2C1)S(=O)(=O)c1ccc(-c2cc(CCC(=O)O)ccc2F)c(F)c1 [Exp. 5-23, (R)-3-(4′-(N-(3-(1-(2,3-dihydro-1H-inden-2-yl)-2-methylpropan-2-ylamino)-2-hydroxypropyl)-N-methylsulfamoyl)-2′,6-difluorobiphenyl-3-yl)propionic acid]",≤ 0.3 µM
12,"CN(C[C@H](O)CNC(C)(C)Cc1ccc2ccccc2c1)S(=O)(=O)c1cccc(-c2ccc(C(=O)O)c(Cl)c2)c1 [Exp. 3-11, (R)-3-chloro-3′-(N-(2-hydroxy-3-(2-methyl-1-(naphthalen-2-yl)propan-2-ylamino)propyl)-N-methylsulfamoyl)biphenyl-4-carboxylic acid]",0.3 to 1 µM
13,"CN(C[C@H](O)CNC(C)(C)Cc1ccc2ccccc2c1)S(=O)(=O)c1cccc(-c2ccc(NCC(=O)O)cc2)c1 [Exp. 3-28, (R)-2-(3′-(N-(2-hydroxy-3-(2-methyl-1-(naphthalen-2-yl)propan-2-ylamino)propyl)-N-methylsulfamoyl)biphenyl-4-ylamino)acetic acid]",0.3 to 1 µM
14,"CN(C[C@H](O)CNC(C)(C)CC1Cc2ccccc2C1)S(=O)(=O)c1cccc(-c2ccc(NC(=O)CCC(=O)O)cc2)c1 [Exp. 3-59, (R)-4-(3′-(N-(3-(1-(2,3-dihydro-1H-inden-2-yl)-2-methylpropan-2-ylamino)-2-hydroxypropyl)-N-methylsulfamoyl)biphenyl-4-ylamino)-4-oxobutanoic acid]",≤ 0.3 µM
15,"CN(C[C@H](O)CNC(C)(C)Cc1ccc2ccccc2c1)S(=O)(=O)c1cccc(-c2ccc(C(=O)NCCC(=O)O)cc2)c1 [Exp. 3-27, (R)-3-(3′-(N-(2-hydroxy-3-(2-methyl-1-(naphthalen-2-yl)propan-2-ylamino)propyl)-N-methylsulfamoyl)biphenyl-4-ylcarboxamide)propionic acid]",0.3 to 1 µM
16,"CN(C[C@H](O)CNC(C)(C)CC1Cc2ccccc2C1)S(=O)(=O)c1c(Cl)cc(-c2cccc(C(=O)O)c2)cc1Cl [Exp. 3-126, (R)-3′,5′-dichloro-4′-(N-(3-(1-(2,3-dihydro-1H-inden-2-yl)-2-methylpropan-2-ylamino)-2-hydroxypropyl)-N-methylsulfamoyl)biphenyl-3-carboxylic acid]",≤ 0.3 µM
17,"CN(C[C@H](O)CNC(C)(C)Cc1ccc2ccccc2c1)S(=O)(=O)Cc1cccc(-c2ccc(C=CC(=O)O)cc2)c1 [Exp. 3-86, (R)-3-(3′-((N-(2-hydroxy-3-(2-methyl-1-(naphthalen-2-yl)propan-2-ylamino)propyl)-N-methylsulfamoyl)methyl)biphenyl-4-yl)acrylic acid]",0.3 to 1 µM
18,"CN(C[C@H](O)CNC(C)(C)Cc1ccc(Cl)c(F)c1)S(=O)(=O)c1cccc(-c2ccc(CCC(=O)O)cc2)c1 [Exp. 3-78, (R)-3-(3′-(N-(3-(1-(4-chloro-3-fluorophenyl)-2-methylpropan-2-ylamino)-2-hydroxypropyl)-N-methylsulfamoyl)biphenyl-4-yl)propionic acid]",1 to 3 µM
19,"CN(C[C@H](O)CNC(C)(C)CC1Cc2ccccc2C1)S(=O)(=O)c1ccc(-c2ccc(CCC(=O)O)c(F)c2)c(Cl)c1 [Exp. 5-59, (R)-3-(2′-chloro-4′-(N-(3-(1-(2,3-dihydro-1H-inden-2-yl)-2-methylpropan-2-ylamino)-2-hydroxypropyl)-N-methylsulfamoyl)-3-fluorobiphenyl-4-yl)propionic acid]",≤ 0.3 µM
20,"CN(C[C@H](O)CNC(C)(C)Cc1ccc2ccccc2c1)S(=O)(=O)c1cccc(-c2cccc(C(=O)O)c2)c1 [Exp. 3-5, (R)-3′-(N-(2-hydroxy-3-(2-methyl-1-(naphthalen-2-yl)propan-2-ylamino)propyl)-N-methylsulfamoyl)biphenyl-3-carboxylic acid]",≤ 0.3 µM
21,"CN(C[C@H](O)CNC(C)(C)Cc1ccc2ccccc2c1)S(=O)(=O)c1cccc(-c2cc(F)cc(C(=O)O)c2)c1 [Exp. 3-23, (R)-5-fluoro-3′-(N-(2-hydroxy-3-(2-methyl-1-(naphthalen-2-yl)propan-2-ylamino)propyl)-N-methylsulfamoyl)biphenyl-3-carboxylic acid]",≤ 0.3 µM
22,"CC(C)(CC1Cc2ccccc2C1)NC[C@@H](O)CNS(=O)(=O)c1cccc(-c2cccc(C(=O)O)c2)c1 [Exp. 14-2, (R)-3′-(N-(3-(1-(2,3-dihydro-1H-inden-2-yl)-2-methylpropan-2-ylamino)-2-hydroxypropyl)sulfamoyl)biphenyl-3-carboxylic acid]",≤ 0.3 µM
23,"CN(C[C@H](O)CNC(C)(C)Cc1ccc2ccccc2c1)S(=O)(=O)Cc1ccc(-c2cccc(C=CC(=O)O)c2)cc1 [Exp. 3-91, (R)-3-(4′-((N-(2-hydroxy-3-(2-methyl-1-(naphthalen-2-yl)propan-2-ylamino)propyl)-N-methylsulfamoyl)methyl)biphenyl-3-yl)acrylic acid]",1 to 3 µM
